This assay has as its target T1, DkSCPL1 and DkSCPL2 co-expressed (Diospyros kaki, UniProt C6L1N2).
T1 sequence (C6L1N2 36-491): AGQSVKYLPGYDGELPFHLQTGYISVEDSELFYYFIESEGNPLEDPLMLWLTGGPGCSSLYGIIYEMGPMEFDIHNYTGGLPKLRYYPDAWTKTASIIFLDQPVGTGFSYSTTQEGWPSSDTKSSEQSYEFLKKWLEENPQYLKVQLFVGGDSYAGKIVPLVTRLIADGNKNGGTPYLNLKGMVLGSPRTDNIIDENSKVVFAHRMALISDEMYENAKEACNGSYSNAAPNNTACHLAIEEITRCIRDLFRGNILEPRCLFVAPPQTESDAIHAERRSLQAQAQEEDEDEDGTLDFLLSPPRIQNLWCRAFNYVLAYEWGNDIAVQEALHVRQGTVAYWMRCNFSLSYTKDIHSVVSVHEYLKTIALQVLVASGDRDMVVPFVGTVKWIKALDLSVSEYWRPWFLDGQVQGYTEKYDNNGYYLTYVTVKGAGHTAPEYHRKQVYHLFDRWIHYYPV
T1 sequence (A4PB66 1-452 partner): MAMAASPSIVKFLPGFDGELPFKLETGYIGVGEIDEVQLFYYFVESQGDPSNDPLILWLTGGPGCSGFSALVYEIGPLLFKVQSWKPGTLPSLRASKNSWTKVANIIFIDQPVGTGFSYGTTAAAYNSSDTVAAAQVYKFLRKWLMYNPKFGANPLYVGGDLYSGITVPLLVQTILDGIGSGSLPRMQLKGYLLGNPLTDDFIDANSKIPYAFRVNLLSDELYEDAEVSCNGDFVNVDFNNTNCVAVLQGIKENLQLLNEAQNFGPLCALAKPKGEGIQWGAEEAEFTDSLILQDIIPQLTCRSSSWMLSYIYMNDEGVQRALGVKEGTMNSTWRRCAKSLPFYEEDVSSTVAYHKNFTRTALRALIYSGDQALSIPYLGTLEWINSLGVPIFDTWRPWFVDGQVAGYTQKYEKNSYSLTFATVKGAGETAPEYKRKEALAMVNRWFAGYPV
As to the kind of experiment: EGCG formation, UPLC-MS/MS, crude extract of N. benthamiana leaves. To be noted: 50 mM phosphate pH 6.0, 30 °C. The class given is biochemical.

Regarding `O=C(O[C@@H]1O[C@H](CO)[C@@H](O)[C@H](O)[C@H]1O)c1cc(O)c(O)c(O)c1` [βG], the “EGCG formation, UPLC-MS/MS, crude extract of N. benthamiana leaves” value (acyl acceptor EGC) is recorded as “the two paralogs when co‐expressed catalyzed the formation of EGCG”. With `Oc1cc(O)c2c(c1)O[C@H](c1cc(O)c(O)c(O)c1)[C@H](O)C2` [EGC], the “EGCG formation, UPLC-MS/MS, crude extract of N. benthamiana leaves” value (acyl donor βG) is given as “the two paralogs when co‐expressed catalyzed the formation of EGCG”.
